US20040242671A1, “Use of 2-oxo-1-pyrrolidine derivatives for the preparation of a drug” (priority 2001, published 2004)

Experiments:
[1] = tested on: MPTP-lesioned marmoset model of Parkinson's disease; assay: Parkinsonian disability score with L-DOPA, MPTP-lesioned marmoset (Example 2); format: in vivo, marmosets (Callithrix jacchus); conditions: for Disability scores: compound A 1, 3, 10 and 30 mg/kg + L-DOPA, p>0.05
Procedure: (§1) This study was designed to investigate whether the compound ((2S)-2-[(4S)-4-(2,2-difluorovinyl)-2-oxopyrrolidinyl]butanamide) (named compound A) has anti-dyskinetic activity in the 1-methyl-4-phenyl-1,2,3,6-tetrahydropyridine (MPTP)—lesioned marmoset model of Parkinson's disease. The effect of the compound A on L-3,4-dihydroxyphenylalanine (L-DOPA)-induced dyskinesias and alleviation of anti parkinsonism symptoms was investigated.
(§2) The study was performed on nine adult marmosets (Callithrix jacchus) bred in a closed colony. The marmosets were rendered parkinsonian by subcutaneous injection of 2 mg/kg MPTP for 5 consecutive days. The marmosets were allowed to recover for 18 weeks until their parkinsonism became stable. The degree of activity and disability before and after MPTP treatment was assessed using a combination of scales that measure locomotor activity, mobility, bradykinesia and posture. Animals were treated with L-DOPA (13.9+/−0.8 mg/kg b.i.d. for 6 weeks) to prime them to elicit dyskinesia.
(§3) All drugs were administered orally in a volume of 5 ml/kg via a syringe in the animal's home cage. The animals were immediately transferred to the experimental cage (60 cm×55 cm×75 cm, with the perch 25 cm from floor of cage) for behavioural assessment. Vehicle was apple juice in all cases.
(§4) 2) Parkinsonian disability—non-parametric measures based on the following scales
(§5) a) Range of movement score: 0=no movement, 1=movement of head on the floor of the cage, 2=movement of limbs, but no locomotion, on the floor of the cage, 3=movement of head or trunk on wall of cage or perch, 4=movement of limbs, but no locomotion, on wall of cage or perch, 5=walking around floor of cage or eating from hopper on floor, 6=hopping on floor of cage, 7=climbing onto wall of cage or perch, 8=climbing up and down the walls of the cage or along perch, 9=running, jumping, climbing between cage walls/perch/roof, uses limbs through a wide range of motion and activity.
(§6) b) Bradykinesia score: 0=normal speed and initiation of movement, 1=mild slowing of movement, 2=moderate slowing, difficulty initiating and maintaining movement, marked freezing, 3=akinetic, unable to move, with prolonged freezing episodes
(§7) c) Postural abnormality score: 0=normal, upright, holds head up, normal balance, 1=abnormal, crouched, face down, may lose balance. […]
(§8) Behaviour was assessed for 6 hours post drug administration. Behavioural test 1, activity, was assessed every 5 minutes for 6 hours post drug administration. Behavioural tests 2 and 3, parkinsonian disability and dyskinesia, respectively, were assessed for 10 minutes every 30 minutes over the course of 6 hours, by post hoc analysis of video-recordings by an observer blinded to the treatment. […]

[2] = tested on: MPTP-lesioned marmoset model of Parkinson's disease; assay: L-DOPA-induced dyskinesia score, MPTP-lesioned marmoset (Example 2); format: in vivo, marmosets (Callithrix jacchus); conditions: for Dyskinesia: first hour post drug administration, vs L-DOPA + vehicle, p<0.05
Procedure: as §1, §2, §3
3)Dyskinesia—non-parametric measures based on the following scale
Dyskinesia score: 0=Absent, 1=Mild, fleeting, 2=Moderate, not interfering with normal activity, 3=Marked, at times interfering with normal activity, 4=Severe, continuous, replacing normal activity.
(§9) Behaviour was assessed for 6 hours post drug administration. Behavioural test 1, activity, was assessed every 5 minutes for 6 hours post drug administration. Behavioural tests 2 and 3, parkinsonian disability and dyskinesia, respectively, were assessed for 10 minutes every 30 minutes over the course of 6 hours, by post hoc analysis of video-recordings by an observer blinded to the treatment. The score given in each 10 minutes time period represents the maximum score achieved during that time period.
Four doses of compound A drug (1 mg/kg, 3 mg/kg, 10 mg/kg and 30 mg/kg) in combination with a single dose of L-DOPA were tested using a randomized treatment schedule. The actions of each of these four combination therapies were compared with that of L-DOPA plus the appropriate vehicle. Thus, a total of five treatments were given.

[3] = tested on: MPTP-lesioned marmoset model of Parkinson's disease; assay: Parkinsonian disability score with L-DOPA, MPTP-lesioned marmoset (Example 1); format: in vivo, marmosets (Callithrix jacchus); conditions: for Disability scores: levetiracetam 13, 30 and 60 mg/kg + L-DOPA 12 mg/kg, p>0.05
Procedure: (§10) This study was designed to investigate whether levetiracetam has anti-dyskinetic activity in the 1-methyl-4-phenyl-1,2,3,6-tetrahydropyridine (MPTP)-lesioned marmoset model of Parkinson's disease. The effect of levetiracetam on L-3,4-dihydroxyphenylalanine (L-DOPA)-induced dyskinesias and alleviation of parkinsonism symptoms was investigated.
as §2, with “seven” for “nine”, “(12.5” for “(13.9+/−0.8”
as §3, §4, §5, §6, §7, §8

[4] = tested on: MPTP-lesioned marmoset model of Parkinson's disease; assay: L-DOPA-induced dyskinesia score, MPTP-lesioned marmoset (Example 1); format: in vivo, marmosets (Callithrix jacchus); conditions: for Dyskinesia: first hour post drug administration, vs L-DOPA + vehicle
Procedure: as §10
as §2, with “seven” for “nine”, “(12.5” for “(13.9+/−0.8”
as §3
3)Dyskinesia—non-parametric measures based on the following scale Dyskinesia score: 0=Absent, 1=Mild, fleeting, 2=Moderate, not interfering with normal activity, 3=Marked, at times interfering with normal activity, 4=Severe, continuous, replacing normal activity.
as §9
Table 1 outlines the randomised treatment schedule i.e. three doses of levetiracetam drug in combination with a single dose of L-DOPA. The actions of each of these three combination therapies were compared with that of L-DOPA plus the appropriate vehicle. Thus, a total of four treatments were given.

[5] = A. J. GOWER et al., Eur. J. Pharmacol., 222, (1992), 193-203; cited from earlier work
[6] = tested on: MPTP-lesioned marmoset model of Parkinson's disease; assay: Parkinsonian disability with Ropinirole, MPTP-lesioned marmoset (Example 3); format: in vivo, marmosets (Callithrix jacchus); conditions: for Parkinsonian disability: Levetiracetam 13 mg/kg + Ropinirole 3.75 mg/kg
Procedure: This study was designed to investigate whether Levetiracetam has a potential as an adjunctive anti-parkinsonian agent to dopamine replacement therapy in the 1-methyl-4-phenyl-1,2,3,6-tetrahydropyridine (MPTP)-lesioned marmoset model of Parkinson's disease. The effect of Levetiracetam on Ropinirole alleviation of parkinsonism symptoms was investigated. The study was performed on six adult marmosets (Callithrix jacchus; 4 female, 2 male). The marmosets were rendered parkinsonian by subcutaneous injection of 2 mg/kg MPTP for 5 consecutive days. The marmosets were allowed to recover for 18 weeks until their parkinsonism was stable. The degree of activity and disability before and after MPTP treatment were assessed using a combination of scales that measure locomotor activity, mobility, bradykinesia and posture. Animals were treated with L-DOPA 12 mg/kg b.i.d. for 6 weeks. After this time, animals were used for assessment of potential symptomatic antiparkinsonian therapy. All drugs were administered orally in a volume of 5 ml/kg via a syringe in the animal's home cage. The animals were immediately transferred to an experimental cage (60 cm×55 cm×75 cm, with the perch 25 cm from floor of cage) for behavioural assessment. Vehicle was apple juice in all cases. The doses were 3.75 mg/kg of Ropinirole in combination with Levetiracetam at 13, 30 and 60 mg/kg. Behaviour was assessed for 6 hours post drug administration. […] Behavioural test 1 (activity) was assessed every 5 minutes for 6 hours post drug administration. Behavioural tests 2 (parkinsonian disability) was assessed for 10 minutes every 30 minutes over the course of 6 hours, by post hoc analysis of video-recordings by an observer blinded to the treatment. The score given/achieved in each 10 minute time period was presented.

[7] = tested on: MPTP-lesioned marmoset model of Parkinson's disease; assay: Activity and on-time with Ropinirole, MPTP-lesioned marmoset (Example 3); format: in vivo, marmosets (Callithrix jacchus); conditions: for "on-time" / Activity: P<0.01; for Enhancement of "on-time": six hour experiment
Procedure: This study was designed to investigate whether Levetiracetam has a potential as an adjunctive anti-parkinsonian agent to dopamine replacement therapy in the 1-methyl-4-phenyl-1,2,3,6-tetrahydropyridine (MPTP)-lesioned marmoset model of Parkinson's disease. The effect of Levetiracetam on Ropinirole alleviation of parkinsonism symptoms was investigated. The study was performed on six adult marmosets (Callithrix jacchus; 4 female, 2 male). The marmosets were rendered parkinsonian by subcutaneous injection of 2 mg/kg MPTP for 5 consecutive days. The marmosets were allowed to recover for 18 weeks until their parkinsonism was stable. The degree of activity and disability before and after MPTP treatment were assessed using a combination of scales that measure locomotor activity, mobility, bradykinesia and posture. Animals were treated with L-DOPA 12 mg/kg b.i.d. for 6 weeks. After this time, animals were used for assessment of potential symptomatic antiparkinsonian therapy. All drugs were administered orally in a volume of 5 ml/kg via a syringe in the animal's home cage. The animals were immediately transferred to an experimental cage (60 cm×55 cm×75 cm, with the perch 25 cm from floor of cage) for behavioural assessment. Vehicle was apple juice in all cases. The doses were 3.75 mg/kg of Ropinirole in combination with Levetiracetam at 13, 30 and 60 mg/kg. Behaviour was assessed for 6 hours post drug administration. 1) Activity—a quantitative assessment using computer-based activity monitors was obtained every 5 minutes for the duration of the experiment. Behavioural test 1 (activity) was assessed every 5 minutes for 6 hours post drug administration. Behavioural tests 2 (parkinsonian disability) was assessed for 10 minutes every 30 minutes over the course of 6 hours, by post hoc analysis of video-recordings by an observer blinded to the treatment. The score given/achieved in each 10 minute time period was presented. Cumulated data for parkinsonian disability, range of movement, bradykinesia and postural abnormalities were analysed with a non-parametric repeated measures one-way ANOVA (Friedman's test) followed by Dunn's multiple comparison test (Graphpad Prism version 3).

[8] = any time-point after one hour post drug administration
[9] = first hour post drug administration
[10] = L-DOPA alone (13.9+/−0.8 mg/kg), oral
[11] = Levetiracetam 13 mg/kg + Ropinirole 3.75 mg/kg
[12] = Levetiracetam 30 mg/kg + Ropinirole 3.75 mg/kg

Structure (SMILES): CC[C@@H](C(N)=O)N1C[C@H](C=C(F)F)CC1=O [compound A, (2S)-2-[(4S)-4-(2,2-difluorovinyl)-2-oxopyrrolidinyl]butanamide]
- Disability scores [1, 8]: no significant differences
- Disability scores [1, 9]: no significant differences
- Reversal of parkinsonian symptoms at peak effect, compared with L-DOPA monotherapy ([1]; compound A 1 to 30 mg/kg + L-DOPA 13.9+/−0.8 mg/kg): same magnitude
- Dyskinesia ([2]; compound A 10 mg/kg + L-DOPA 13.9+/−0.8 mg/kg oral): significantly reduced
- Dyskinesia ([2]; compound A 30 mg/kg + L-DOPA 13.9+/−0.8 mg/kg oral): significantly reduced
- Dyskinesia scores ([2]; compound A 1, 3, 10 and 30 mg/kg + L-DOPA, any time-point after one hour post drug administration, p>0.05): no significant differences

Structure (SMILES): N[C@@H](Cc1ccc(O)c(O)c1)C(=O)O [L-DOPA, L-3,4-dihydroxyphenylalanine]
- Effect on parkinsonian symptoms ([3]; L-DOPA 12 mg/kg alone, oral): reversed parkinsonian symptoms
- Effect on parkinsonian symptoms [1, 10]: reversed parkinsonian symptoms
- Dyskinesia accompanying alleviation of parkinsonian symptoms ([4]; L-DOPA 12 mg/kg alone, oral): severe dyskinesia
- Dyskinesia accompanying alleviation of parkinsonian symptoms [2, 10]: accompanied by dyskinesia

Structure (SMILES): CC[C@H](C(N)=O)N1CCCC1=O [(R)-(+)-α-ethyl-2-oxo-1-pyrrolidine-acetamide]
- Activity in the treatment of epilepsy [5]: completely devoid of activity

Structure (SMILES): CC[C@@H](C(N)=O)N1CCCC1=O [levetiracetam, (S)-α-ethyl-2-oxo-1-pyrrolidineacetamide]
- Disability scores [3, 8]: no significant differences
- Disability scores [3, 9]: no significant differences
- Reversal of parkinsonian symptoms at peak effect, compared with L-DOPA monotherapy ([3]; levetiracetam 13 to 60 mg/kg + L-DOPA 12 mg/kg): same magnitude
- Potentiation of the alleviation of parkinsonism by Ropinirole ([6]; Levetiracetam 13 mg/kg + Ropinirole 3.75 mg/kg oral): significantly potentiated
- Parkinsonian disability ([6]; during 3-4 hour time period, P<0.05): significantly reduced
- Parkinsonian disability ([6]; over the experiment as a whole, P<0.05): significantly reduced
- Potentiation of the alleviation of parkinsonism by Ropinirole ([6]; Levetiracetam 30 mg/kg + Ropinirole 3.75 mg/kg oral): significantly potentiated
- Range of movement ([6]; Levetiracetam 30 mg/kg + Ropinirole 3.75 mg/kg, during the 0-1 hour time period, P<0.05): significantly increased
- Potentiation of the alleviation of parkinsonism by Ropinirole ([6]; Levetiracetam 60 mg/kg + Ropinirole 3.75 mg/kg oral): not
- "on-time" [7, 11]: significantly increased
- Activity [7, 11]: significantly increased
- Enhancement of "on-time" [7, 11]: approximately 82%
- "on-time" [7, 12]: significantly increased
- Activity [7, 12]: significantly increased
- Enhancement of "on-time" [7, 12]: ~69%
- Dyskinesia ([4]; levetiracetam 13 mg/kg + L-DOPA 12 mg/kg oral, p<0.01): significantly reduced
- Dyskinesia ([4]; levetiracetam 30 mg/kg + L-DOPA 12 mg/kg oral, p<0.05): significantly reduced
- Dyskinesia ([4]; levetiracetam 60 mg/kg + L-DOPA 12 mg/kg oral, p<0.01): significantly reduced
- Dyskinesia scores ([4]; levetiracetam 13, 30 and 60 mg/kg + L-DOPA 12 mg/kg, any time-point after one hour post drug administration, p>0.05): no significant differences
